Results published in patent US5569456A, “Biologically active rupununines” (priority 1994, dated 1996).

Assays:
[1] = Solubility of crystalline rupununine in organic solvents; type: physicochemical; conditions: crystalline white solid
Method: (§1) Rupununine (100 mg.) was dissolved in the minimum volume of distilled acetone (2 ml). The solution was warmed gently, filtered and then left in the refrigerator overnight. This produced white needles which were recrystallized in acetone giving crystalline rupununine (45 mg.). Further crystalline samples were also obtained by the same treatment with acetone, of Fraction C.1 and C.2. The crystals were dried in a drying pistol under nitrogen, over phosphorus pentoxide at 60° C. overnight. […] The crystals melted between 214°-217° C., and were fairly stable, if kept under nitrogen at room temperature, even for prolonged periods.

[2] = Stability of rupununine crystals under nitrogen at room temperature; type: physicochemical; conditions: crystals kept under nitrogen at room temperature, prolonged periods
Method: as §1

rupununine
solubility in chloroform ([1]; chloroform): fairly soluble | solubility in ethanol ([1]; ethanol): fairly soluble | solubility in ether ([1]; ether): only partially soluble | solubility in methanol ([1]; methanol): fairly soluble | stability [2]: fairly stable
